Calls of active or inactive are those of the source. No cut-off for these calls is given here.
Assays:
[1] = target: Histone acetyltransferase KAT2B (Homo sapiens) (UniProt Q92831); assay: Inhibition of recombinant human KAT2B (492 to 658 residues) using histone H3 peptide and [3H]-acetyl-coA as substrates at 200 uM incubated for 1 hrs by liquid scintillation counter analysis
[2] = target: Histone acetyltransferase p300 (Homo sapiens) (UniProt Q09472); assay: Inhibition of recombinant human KAT3B (1287 to 1673 residues) using histone H3 peptide and [3H]-acetyl-coA as substrates at 200 uM incubated for 1 hrs by liquid scintillation counter analysis
Sequence of Histone acetyltransferase p300 (Homo sapiens) (Q09472 whole entry, the tested form may be a part): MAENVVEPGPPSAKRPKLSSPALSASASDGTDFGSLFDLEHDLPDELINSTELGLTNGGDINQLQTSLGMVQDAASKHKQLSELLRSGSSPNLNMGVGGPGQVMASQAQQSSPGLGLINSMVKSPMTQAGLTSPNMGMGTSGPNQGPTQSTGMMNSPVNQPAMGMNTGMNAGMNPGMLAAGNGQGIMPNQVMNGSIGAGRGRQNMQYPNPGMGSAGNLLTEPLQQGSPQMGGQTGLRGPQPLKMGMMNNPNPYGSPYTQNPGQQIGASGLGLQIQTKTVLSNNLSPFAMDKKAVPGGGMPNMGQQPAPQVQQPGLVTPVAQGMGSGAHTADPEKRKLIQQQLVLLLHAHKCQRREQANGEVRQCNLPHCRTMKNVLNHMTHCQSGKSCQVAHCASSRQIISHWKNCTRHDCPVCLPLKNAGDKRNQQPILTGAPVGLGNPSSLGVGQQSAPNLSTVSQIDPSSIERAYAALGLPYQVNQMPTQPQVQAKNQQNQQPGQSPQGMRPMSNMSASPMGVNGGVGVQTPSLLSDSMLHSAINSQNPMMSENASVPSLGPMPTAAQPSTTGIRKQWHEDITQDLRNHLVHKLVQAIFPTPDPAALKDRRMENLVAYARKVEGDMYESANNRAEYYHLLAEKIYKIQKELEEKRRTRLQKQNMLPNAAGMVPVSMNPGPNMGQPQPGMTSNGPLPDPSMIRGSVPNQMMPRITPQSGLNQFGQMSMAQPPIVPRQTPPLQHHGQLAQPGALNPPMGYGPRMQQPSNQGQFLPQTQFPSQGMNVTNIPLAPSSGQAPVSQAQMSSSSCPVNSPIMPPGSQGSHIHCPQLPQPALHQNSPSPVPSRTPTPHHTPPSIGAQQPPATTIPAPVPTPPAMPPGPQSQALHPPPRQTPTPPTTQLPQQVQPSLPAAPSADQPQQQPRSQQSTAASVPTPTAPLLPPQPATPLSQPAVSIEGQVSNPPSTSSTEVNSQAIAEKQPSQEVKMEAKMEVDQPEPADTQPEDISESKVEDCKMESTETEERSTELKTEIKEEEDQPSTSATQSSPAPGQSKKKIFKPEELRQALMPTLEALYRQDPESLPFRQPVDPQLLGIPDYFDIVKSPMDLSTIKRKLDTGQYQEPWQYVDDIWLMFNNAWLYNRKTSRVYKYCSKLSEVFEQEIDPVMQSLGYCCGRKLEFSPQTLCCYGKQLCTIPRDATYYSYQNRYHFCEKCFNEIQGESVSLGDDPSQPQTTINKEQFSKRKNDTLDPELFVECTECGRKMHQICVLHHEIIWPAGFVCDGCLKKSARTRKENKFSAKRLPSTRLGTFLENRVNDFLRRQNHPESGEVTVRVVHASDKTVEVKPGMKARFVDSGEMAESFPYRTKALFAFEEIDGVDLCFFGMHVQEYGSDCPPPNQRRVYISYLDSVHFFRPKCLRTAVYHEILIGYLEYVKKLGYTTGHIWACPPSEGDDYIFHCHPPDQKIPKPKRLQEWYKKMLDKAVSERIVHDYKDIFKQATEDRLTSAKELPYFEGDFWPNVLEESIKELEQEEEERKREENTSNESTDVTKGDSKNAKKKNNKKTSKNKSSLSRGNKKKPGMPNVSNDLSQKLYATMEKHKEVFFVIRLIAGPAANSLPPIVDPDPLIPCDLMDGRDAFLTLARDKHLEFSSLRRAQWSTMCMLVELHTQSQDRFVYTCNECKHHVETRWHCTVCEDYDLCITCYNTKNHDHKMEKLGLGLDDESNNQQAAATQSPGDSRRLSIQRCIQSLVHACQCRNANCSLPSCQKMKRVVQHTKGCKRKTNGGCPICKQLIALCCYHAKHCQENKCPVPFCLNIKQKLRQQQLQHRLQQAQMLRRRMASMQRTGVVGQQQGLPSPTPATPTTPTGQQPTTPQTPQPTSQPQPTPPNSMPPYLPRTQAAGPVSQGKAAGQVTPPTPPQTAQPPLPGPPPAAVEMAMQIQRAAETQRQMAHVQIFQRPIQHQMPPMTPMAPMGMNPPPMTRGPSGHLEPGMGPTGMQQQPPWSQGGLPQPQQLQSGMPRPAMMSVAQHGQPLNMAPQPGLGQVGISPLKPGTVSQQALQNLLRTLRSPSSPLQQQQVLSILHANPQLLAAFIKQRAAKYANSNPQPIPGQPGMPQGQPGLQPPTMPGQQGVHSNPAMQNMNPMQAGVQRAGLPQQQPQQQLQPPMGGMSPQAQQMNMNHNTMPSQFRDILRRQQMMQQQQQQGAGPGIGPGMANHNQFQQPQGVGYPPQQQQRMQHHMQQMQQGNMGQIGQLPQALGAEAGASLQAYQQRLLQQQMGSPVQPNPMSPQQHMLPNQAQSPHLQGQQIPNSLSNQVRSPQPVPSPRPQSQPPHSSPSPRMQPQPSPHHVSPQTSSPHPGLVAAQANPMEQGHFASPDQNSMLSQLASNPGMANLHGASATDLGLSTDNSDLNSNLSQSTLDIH

[3] = Inhibition of human recombinant KDAC8
[4] = target: T1, Histone acetyltransferase KAT8 (Homo sapiens) (UniProt Q9H7Z6); assay: Inhibition of N-terminal 6His tagged KAT8 (173 to 458 residues) (unknown origin) expressed in Escherichia coli BL21(DE3) using biotinylated histone H4 peptide and [3H]Acetyl-CoA as substrates at 200 uM preincubated for 20 mins followed by substrate addition and measured after 4 hrs by MicroBeta microplate counter analysis; conditions: time 260.0 min
T1 sequence (whole entry): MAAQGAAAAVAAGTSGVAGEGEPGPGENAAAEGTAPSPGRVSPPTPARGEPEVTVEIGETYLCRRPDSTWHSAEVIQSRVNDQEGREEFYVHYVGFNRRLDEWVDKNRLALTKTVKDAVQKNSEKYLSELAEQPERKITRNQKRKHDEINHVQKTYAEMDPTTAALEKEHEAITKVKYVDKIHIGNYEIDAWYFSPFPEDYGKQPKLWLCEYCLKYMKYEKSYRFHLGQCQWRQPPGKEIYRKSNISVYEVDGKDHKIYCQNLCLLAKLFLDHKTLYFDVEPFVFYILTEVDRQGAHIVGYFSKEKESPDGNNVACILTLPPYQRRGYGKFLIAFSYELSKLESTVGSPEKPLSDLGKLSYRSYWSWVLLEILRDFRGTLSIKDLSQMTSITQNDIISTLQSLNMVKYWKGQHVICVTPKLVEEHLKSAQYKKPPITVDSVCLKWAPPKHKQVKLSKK

Homo sapiens [5] = species: Homo sapiens; assay: Inhibition of human recombinant KDAC1 using Boc-Lys-(Ac)-AMC as substrate at 50 to 100 uM incubated for 45 mins by fluorescence microplate reader analysis; conditions: dose 50-100 µM
[6] = target: Histone deacetylase 2 (Homo sapiens) (UniProt Q92769); assay: Inhibition of human recombinant KDAC2 using Boc-Lys-(Ac)-AMC as substrate at 50 to 100 uM incubated for 45 mins by fluorescence microplate reader analysis; conditions: dose 50-100 µM
Sequence of Histone deacetylase 2 (Homo sapiens) (Q92769 whole entry): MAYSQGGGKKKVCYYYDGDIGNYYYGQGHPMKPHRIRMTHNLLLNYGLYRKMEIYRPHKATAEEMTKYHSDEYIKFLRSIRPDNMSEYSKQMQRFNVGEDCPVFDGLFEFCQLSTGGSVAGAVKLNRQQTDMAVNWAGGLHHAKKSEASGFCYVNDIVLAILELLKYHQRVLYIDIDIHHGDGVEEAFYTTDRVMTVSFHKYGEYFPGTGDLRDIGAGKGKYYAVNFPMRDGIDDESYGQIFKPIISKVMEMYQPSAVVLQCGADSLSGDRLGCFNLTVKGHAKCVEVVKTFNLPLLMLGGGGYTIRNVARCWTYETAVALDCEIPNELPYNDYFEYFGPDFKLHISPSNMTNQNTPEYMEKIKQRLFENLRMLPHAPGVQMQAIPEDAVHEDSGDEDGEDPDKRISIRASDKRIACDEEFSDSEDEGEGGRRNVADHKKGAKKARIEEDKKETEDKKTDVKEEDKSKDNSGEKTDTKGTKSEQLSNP

[7] = target: Histone deacetylase 3 (Homo sapiens) (UniProt O15379); assay: Inhibition of human recombinant KDAC3 using Boc-Lys-(Ac)-AMC as substrate at 50 to 100 uM incubated for 45 mins by fluorescence microplate reader analysis; conditions: dose 50-100 µM
Sequence of Histone deacetylase 3 (Homo sapiens) (O15379 whole entry): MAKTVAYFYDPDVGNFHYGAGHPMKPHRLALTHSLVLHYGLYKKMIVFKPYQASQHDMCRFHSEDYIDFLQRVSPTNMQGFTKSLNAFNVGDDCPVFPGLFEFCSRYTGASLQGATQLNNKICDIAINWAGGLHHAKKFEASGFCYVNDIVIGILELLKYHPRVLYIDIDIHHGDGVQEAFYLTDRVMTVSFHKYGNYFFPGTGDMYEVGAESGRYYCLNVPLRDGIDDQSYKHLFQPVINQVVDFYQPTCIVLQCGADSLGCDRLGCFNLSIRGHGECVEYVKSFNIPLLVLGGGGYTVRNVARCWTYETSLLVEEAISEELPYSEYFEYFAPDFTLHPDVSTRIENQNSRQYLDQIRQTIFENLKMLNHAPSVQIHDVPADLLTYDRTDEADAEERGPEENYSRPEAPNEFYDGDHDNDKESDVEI

[8] = target: T2, Protein deacetylase HDAC6 (Homo sapiens) (UniProt Q9UBN7); assay: Inhibition of human recombinant KDAC6 using Boc-Lys-(Ac)-AMC as substrate at 50 to 100 uM incubated for 45 mins by fluorescence microplate reader analysis; conditions: dose 50-100 µM
T2 sequence (whole entry): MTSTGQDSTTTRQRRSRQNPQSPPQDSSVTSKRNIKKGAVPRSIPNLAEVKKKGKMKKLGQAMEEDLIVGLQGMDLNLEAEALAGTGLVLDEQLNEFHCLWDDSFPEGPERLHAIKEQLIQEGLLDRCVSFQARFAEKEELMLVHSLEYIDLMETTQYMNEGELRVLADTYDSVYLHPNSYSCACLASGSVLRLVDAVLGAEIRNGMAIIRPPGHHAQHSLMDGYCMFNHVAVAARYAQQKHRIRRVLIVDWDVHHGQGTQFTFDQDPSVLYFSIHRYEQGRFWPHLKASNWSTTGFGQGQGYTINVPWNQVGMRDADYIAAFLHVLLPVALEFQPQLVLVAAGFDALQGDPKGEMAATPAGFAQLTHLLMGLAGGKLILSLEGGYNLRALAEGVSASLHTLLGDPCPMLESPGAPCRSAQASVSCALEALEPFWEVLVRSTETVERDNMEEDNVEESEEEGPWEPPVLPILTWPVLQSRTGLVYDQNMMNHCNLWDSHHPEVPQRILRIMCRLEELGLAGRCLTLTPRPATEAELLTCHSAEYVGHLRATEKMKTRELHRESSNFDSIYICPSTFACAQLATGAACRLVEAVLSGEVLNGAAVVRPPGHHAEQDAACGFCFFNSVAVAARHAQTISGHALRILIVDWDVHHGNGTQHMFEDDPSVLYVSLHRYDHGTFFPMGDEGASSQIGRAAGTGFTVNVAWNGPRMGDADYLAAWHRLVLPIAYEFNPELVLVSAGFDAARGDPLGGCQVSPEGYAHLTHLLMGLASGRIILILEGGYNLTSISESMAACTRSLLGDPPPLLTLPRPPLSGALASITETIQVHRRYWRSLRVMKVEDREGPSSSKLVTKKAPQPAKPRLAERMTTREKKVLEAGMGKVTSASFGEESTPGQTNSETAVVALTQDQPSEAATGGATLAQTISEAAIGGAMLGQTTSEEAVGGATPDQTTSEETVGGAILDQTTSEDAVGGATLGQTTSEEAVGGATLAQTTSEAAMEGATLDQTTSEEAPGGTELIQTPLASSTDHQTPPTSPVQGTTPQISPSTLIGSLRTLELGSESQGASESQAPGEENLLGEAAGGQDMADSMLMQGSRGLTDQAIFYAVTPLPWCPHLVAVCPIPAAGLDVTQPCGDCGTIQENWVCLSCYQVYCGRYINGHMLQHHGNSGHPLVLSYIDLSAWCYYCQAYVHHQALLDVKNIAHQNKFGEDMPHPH

Homo sapiens [9] = species: Homo sapiens; assay: Inhibition of human recombinant KDAC8 using Boc-Lys-(Ac)-AMC as substrate at 50 to 100 uM incubated for 45 mins by fluorescence microplate reader analysis; conditions: dose 50-100 µM

Sequence of Histone acetyltransferase KAT2B (Homo sapiens) (Q92831 whole entry, looked up, the tested form may be a part): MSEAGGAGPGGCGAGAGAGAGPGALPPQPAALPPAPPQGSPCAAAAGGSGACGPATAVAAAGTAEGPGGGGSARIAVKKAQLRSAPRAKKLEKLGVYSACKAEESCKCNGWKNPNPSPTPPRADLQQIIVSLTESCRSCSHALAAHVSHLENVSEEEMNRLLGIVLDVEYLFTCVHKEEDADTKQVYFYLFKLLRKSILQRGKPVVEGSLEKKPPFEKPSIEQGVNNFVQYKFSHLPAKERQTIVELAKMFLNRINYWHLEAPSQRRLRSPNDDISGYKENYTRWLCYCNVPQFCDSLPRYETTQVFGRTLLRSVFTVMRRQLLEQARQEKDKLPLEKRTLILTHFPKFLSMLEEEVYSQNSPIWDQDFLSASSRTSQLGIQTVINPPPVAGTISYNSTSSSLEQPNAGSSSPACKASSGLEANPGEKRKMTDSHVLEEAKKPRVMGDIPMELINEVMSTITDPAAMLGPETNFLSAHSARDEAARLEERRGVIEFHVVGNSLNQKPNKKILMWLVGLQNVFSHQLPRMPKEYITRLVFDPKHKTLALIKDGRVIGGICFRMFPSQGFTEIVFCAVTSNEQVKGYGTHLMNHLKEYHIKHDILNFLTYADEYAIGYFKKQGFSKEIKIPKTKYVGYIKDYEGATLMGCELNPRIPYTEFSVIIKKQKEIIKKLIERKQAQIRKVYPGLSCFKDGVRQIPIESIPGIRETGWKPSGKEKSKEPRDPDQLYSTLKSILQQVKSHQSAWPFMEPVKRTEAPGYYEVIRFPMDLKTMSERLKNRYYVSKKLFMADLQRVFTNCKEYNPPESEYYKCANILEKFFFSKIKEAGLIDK

Row | Structure (SMILES) | inhibition [1] | inhibition [2] | further results
1 | CC1=NN(c2ccc(C(=O)O)cc2)C(=O)/C1=C\c1cc(C(=O)c2ccccc2[N+](=O)[O-])c[nH]1 | inactive | – | –
2 | CC1=NN(c2ccc(C(=O)O)cc2)C(=O)/C1=C\c1ccc(-c2cc(C)c(C)cc2[N+](=O)[O-])o1 | inactive | – | IC50 [3]: 7 µM; inhibition [4]: inactive; inhibition (Homo sapiens [5]): Active; inhibition [6]: Active; inhibition [7]: Active; inhibition [8]: Active; inhibition (Homo sapiens [9]): Active
3 | Cc1nn(-c2ccc(C(=O)O)cc2)c(O)c1Cc1ccccc1 | inactive | inactive | –
4 | CC1=NN(c2ccc(C(=O)O)cc2)C(=O)/C1=C\c1cc(C(=O)c2ccccc2Cl)c[nH]1 | inactive | – | –
5 | CC1=NN(c2ccc(C(=O)O)cc2)C(=O)/C1=C\c1cc(C(=O)c2ccc(Cl)cc2)c[nH]1 | – | – | inhibition [4]: inactive
6 | CC1=NN(c2ccccc2)C(=O)/C1=C\c1cc(C(=O)c2ccccc2)c[nH]1 | – | – | inhibition [4]: inactive
7 | CC1=NN(c2ccc(C(=O)O)cc2)C(=O)/C1=C\c1cc(C(=O)c2ccccc2O)c[nH]1 | – | – | inhibition [4]: inactive
8 | O=C(O)c1ccc(N2N=C(Cc3ccccc3)/C(=C/c3ccc[nH]3)C2=O)cc1 | inactive | inactive | –
9 | CC1=NN(c2ccc(C(=O)NCCCN3CCCC3)cc2)C(=O)/C1=C\c1ccc[nH]1 | – | – | inhibition [4]: inactive
10 | CC1=NN(c2ccc(C(=O)NCc3ccccc3)cc2)C(=O)/C1=C\c1ccc[nH]1 | inactive | inactive | inhibition [4]: inactive
11 | CC1=NN(c2ccc(C(=O)O)cc2)C(=O)C1 | – | – | inhibition [4]: inactive
12 | CCCCCCCc1ccc(CCc2cccc(O)c2C(=O)O)cc1 | inactive | – | –
13 | CC1=NN(c2ccccc2)C(=O)/C1=C\c1cc(C(=O)c2ccccc2[N+](=O)[O-])c[nH]1 | – | – | inhibition [4]: inactive
14 | CC1=NN(c2ccc(C(=O)O)cc2)C(=O)/C1=C\c1cc(C(=O)c2ccc([N+](=O)[O-])cc2)c[nH]1 | – | – | inhibition [4]: inactive
15 | CC1=NN(c2ccc(C(=O)O)cc2)C(=O)/C1=C\c1cc(C(=O)c2ccccc2C)c[nH]1 | inactive | – | –
16 | CC1=NN(c2ccc(C(=O)O)cc2)C(=O)/C1=C\c1cc(C(=O)c2ccccc2)c[nH]1 | inactive | – | –
17 | Cc1nn(-c2ccc(C(=O)O)cc2)c(O)c1Cc1ccc[nH]1 | inactive | inactive | –
18 | CC1=NN(c2cccc(C(=O)O)c2)C(=O)/C1=C\c1ccc[nH]1 | inactive | inactive | –

More lines, main results first:

Row | inhibition [1] | inhibition [2] | Structure (SMILES) | further results
19 | inactive | – | CC1=NN(c2ccc(C(=O)O)cc2)C(=O)/C1=C\c1cccs1 | –
20 | inactive | inactive | CC1=NN(c2ccc(C(=O)O)cc2)C(=O)/C1=C\c1cc[nH]c1 | –
21 | inactive | inactive | CC1=NN(c2ccc(C(N)=O)cc2)C(=O)/C1=C\c1ccc[nH]1 | –
22 | inactive | inactive | CC1=NN(c2ccc(C(=O)O)cc2)C(=O)/C1=C\c1ccccc1 | –
23 | inactive | – | CC1=NN(c2ccc(C(=O)O)cc2)C(=O)C1=Cc1ccco1 (mixture of isomers) | –
24 | inactive | inactive | CC1=NN(c2ccc(C(=O)O)cc2)C(=O)/C1=C\c1ccn[nH]1 | –
25 | inactive | – | CC1=NN(c2ccc(C(=O)O)cc2)C(=O)/C1=C\c1c[nH]cn1 | –
26 | inactive | – | CC1=NN(c2ccc(C(=O)O)cc2)C(=O)/C1=C\c1cccn1C | –
27 | inactive | – | CC1=NN(c2ccc(C(=O)O)cc2)C(=O)/C1=C\c1c[nH]c2ccccc12 | –
28 | inactive | inactive | CC(C)C1=NN(c2ccc(C(=O)O)cc2)C(=O)/C1=C\c1ccc[nH]1 | –
29 | inactive | inactive | CC1=NN(c2ccc(C(=O)N(C)C)cc2)C(=O)/C1=C\c1ccc[nH]1 | –
30 | inactive | – | CC1=NN(c2ccc(C(=O)O)cc2)C(=O)/C1=C\c1cc2ccccc2[nH]1 | –
31 | inactive | – | CC1=NN(c2ccc(C(=O)O)cc2)C(=O)/C1=C\c1cccn1-c1ccccc1 | –
32 | inactive | inactive | CC1=NN(c2ccc(C(=O)O)cc2)C(=O)/C1=C(/C)c1ccc[nH]1 | –

— ChEMBL document CHEMBL5338773, “First-in-Class Selective Inhibitors of the Lysine Acetyltransferase KAT8” (J Med Chem, 2023)
